Laboratory results from ChEMBL document CHEMBL3272349, “Quantitative structure-activity relationships of antimalarial and dihydrofolate reductase inhibition by quinazolines and 5-substituted benzyl-2,4-diaminopyrimidines” (J Med Chem, 1977).

The compounds below were run against T1, Dihydrofolate reductase (Escherichia coli) (UniProt P0ABQ4).
T1 sequence (whole entry): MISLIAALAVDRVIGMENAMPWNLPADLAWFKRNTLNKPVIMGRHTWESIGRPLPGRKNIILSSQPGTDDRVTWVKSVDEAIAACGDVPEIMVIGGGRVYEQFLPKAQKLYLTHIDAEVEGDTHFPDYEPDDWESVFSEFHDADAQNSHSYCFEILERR
Description: Inhibition of Escherichia coli dihydrofolate reductase

| SMILES | log(1/I50) |
| --- | --- |
| COc1ccc(Cc2cnc(N)nc2N)cc1 | 5.96 |
| COc1cc(Cc2cnc(N)nc2N)cc(Cl)c1OC | 7.4 |
| COc1ccc(Cc2cnc(N)nc2N)cc1OC | 7 |
| Nc1ncc(Cc2ccc(O)cc2)c(N)n1 | 5.74 |
| Nc1ncc(Cc2ccc(Cl)cc2)c(N)n1 | 5.68 |
| COc1cccc(Cc2cnc(N)nc2N)c1 | 6.31 |
| Cc1ccc(Cc2cnc(N)nc2N)cc1 | 5.64 |

What follows are compounds tested on Proteus vulgaris (assay: Inhibition of Proteus vulgaris dihydrofolate reductase).

| SMILES | Activity |
| --- | --- |
| CCCCc1ccc(N2C(N)=NC(N)=NC2(C)C)cc1 | 10000 ×10⁻⁸ M |
| COc1cc(Cc2cnc(N)nc2N)cc(OC)c1OC | 0.5 ×10⁻⁸ M |

Each compound was assayed on Plasmodium berghei (assay: Antimalarial activity against Plasmodium berghei infected in po dosed mouse assessed as suppression of parasitemia administered for 4 days).
Format: functional

| SMILES | log(1/SD90) |
| --- | --- |
| Nc1nc(N)c2cc(N3CCCC3c3ccccc3)ccc2n1 (stereo not drawn) | 5.94 |
| Cc1ccc(C)n1-c1cc(-n2c(C)ccc2C)c2nc(N)nc(N)c2c1 | 4.34 |
| Nc1nc(N)c2cc(N3CCc4ccccc4C3)ccc2n1 | 4.8 |
| Nc1nc(N)c2cc(N3CCC(c4ccccc4)CC3)ccc2n1 | 4.3 |
| Nc1nc(N)c2cc(N(Cc3ccc(Cl)c(Cl)c3)N=O)ccc2n1 | 6.13 |

These compounds were tested on Plasmodium berghei (assay: Antimalarial activity against Plasmodium berghei infected in po dosed mouse assessed as suppression of parasitemia administered for 6 days).
Format: functional

| SMILES | log(1/SD90) |
| --- | --- |
| Nc1nc(N)c2cc(Oc3cc(Cl)c(Cl)cc3Cl)ccc2n1 | 4.57 |
| Nc1nc(N)c2cc(Oc3ccc(Cl)c(Cl)c3)ccc2n1 | 4.52 |
| Nc1nc(N)c2cc(Oc3ccc(Cl)c4ccccc34)ccc2n1 | 3.57 |

These compounds were tested against T2, Dihydrofolate reductase (Rattus norvegicus) (UniProt Q920D2).
T2 sequence (whole entry): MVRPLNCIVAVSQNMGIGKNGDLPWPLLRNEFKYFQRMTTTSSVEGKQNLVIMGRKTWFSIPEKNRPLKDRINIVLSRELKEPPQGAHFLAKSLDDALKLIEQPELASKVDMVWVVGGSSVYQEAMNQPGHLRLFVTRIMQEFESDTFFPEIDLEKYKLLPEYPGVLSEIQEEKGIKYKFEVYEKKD
Description: Inhibition of rat liver dihydrofolate reductase

| SMILES | log(1/I50) |
| --- | --- |
| Nc1ncc(Cc2ccccc2)c(N)n1 | 4.8 |
